Earlier results as cited in publication PMC2613028, “Discovery of a Non-Peptidic Inhibitor of West Nile Virus NS3 Protease by High-Throughput Docking” (PLoS Neglected Tropical Diseases, 2009).
Where two headings read alike, the source gives them in different places.

Test system: WNV protease
Parameters: method as in PMID 17064076
Conditions: peptide aldehyde inhibitors

benzoyl-norleucine-lysine-arginine-arginine-aldehyde [Bz-Nle-Lys-Arg-Arg-H]
IC50: 4.1 µM | IC50 (listed as Bz-nKRR-H): 4 µM
